One compound from patent US20030232862A1 (priority 2002, published 2003) can be followed below.

The test system of one test is HT-29 cells. Description: Growth inhibition of HT-29 cells (SRB assay; trypan blue counting in time course). To be noted: Table 9 qualitative profile. Format: cell-based, human.
In test [1] the test system is PKG activity in SW480 colon cancer cells. Description: PKG activity assay in drug-treated SW480 cells. Format: cell-based, human. To be noted: SW480, 48 hrs, with and without added cGMP; exisulind 200-600 μM, E4021 0.1-10 μM. From the text:
The novel PKG assay of this invention involves binding to solid phase plural amino acid sequences, each of which contain at least the cGMP-binding (cGB) domain and the phosphorylation site of phosphodiesterase type 5 (“PDE5”). That sequence is known and described in the literature below. […] One way to bind the PDE5 sequences to a solid phase is to express those sequences as a fusion protein of the PDE5 sequence and one member of an amino acid binding pair, and chemically link the other member of that amino acid binding pair to a solid phase (e.g., beads). One binding pair that can be used is glutathione S-transferase (“GST”) and glutathione (“GSH”), with the GST being expressed as a fusion protein with the PDE5 sequence described above, and the GSH bound covalently to the solid phase. In this fashion, the PDE5 sequence/GST fusion protein can be bound to a solid phase simply by passing a solution containing the fusion protein over the solid phase, as described below.
To assay a liquid sample believed to contain PKG using the PDE5-bound solid phase described above, the sample and the solid phase are mixed with phosphorylation buffer containing ^32P-γ-ATP. […]
For each control or drug cell lysate sample to be evaluated, the reaction is started by adding phosphorylation buffer containing 10 μCi ^32P-γ-ATP solution (200 μM ATP, 4.5 mM MgCl; 5 mM KH2PO4; 5 mM K2HPO4;) to each mixture. […]

Test [2] deals with PKG activity in HCT116 colon cancer cells. Description: PKG activity assay in drug-treated HCT116 cells. Format: cell-based. An excerpt:
To test the effect of cGMP-specific PDE inhibition on neoplasia containing the β-catenin mutation, HCT116 colon cancer cells were employed. HCT116 is known to contain the β-catenin mutation, but is known not to contain the APC mutation.
The same procedure is used to grow the HCT116 cells as is used in the SW480 procedure described above. In this experiment, only exisulind and controls were used.

The test system of test [3] is β-catenin and PKG levels in SW480 cells. The test is described as follows: Western blot of β-catenin and PKG in SW480 cells. Format: cell-based, human. How it is done:
SW480 cells treated with exisulind as described previously are harvested from the microfuge tubes by rinsing once with ice-cold PBS. The cells are lysed by modified RIPA buffer for 15 minutes with agitation. The cell lysate is spun down in a cold room. The supernatants are transferred to fresh microcentrifuge tubes immediately after spinning. BioRad DC Protein Assay (Temecula, Calif.) is performed to determine the protein concentrations in samples. The samples are normalized for protein concentration, as described above.
50 μg of each sample is loaded onto a 10% SDS gel. SDS-PAGE is performed, and the proteins then are transferred to a nitrocellulose membrane. The blotted nitrocellulose membrane is blocked in freshly prepared TBST containing 5% nonfat dry milk for one hour at room temperature with constant agitation.
A goat-anti-PKG primary antibody is diluted to the recommended concentration/dilution in fresh TBST/5% nonfat dry milk. The nitrocellulose membrane is placed in the primary antibody solution and incubated one hour at room temperature with agitation. The nitrocellulose membrane is washed three times for ten minutes each with TBST. The nitrocellulose membrane is incubated in a solution containing a secondary peroxidase (POD) conjugated rabbit anti-goat antibody for 1 hour at room temperature with agitation. The nitrocellulose membrane is washed three times for ten minutes each time with TBST. The detection is performed by using Boehringer Mannheim BM blue POD substrate.
SW480 cells were treated with exisulind or vehicle (0.1% DMSO) for 48 hours. 50 μg supernatant of each cell lysate was loaded onto a 10% SDS-gel and blotted to a nitrocellulose membrane, and the membrane was probed with rabbit-anti-β-catenin and rabbit anti-PKG antibodies.
This observation was made by culturing SW480 cells with either 200, 400 or 600 μM exisulind or vehicle (0.1% DMSO). The cells are harvested 48 hours post treatment and processed for immunoblotting. Immuno-reactive protein can be detected by Western blot. […]

Take `CC1=C(CC(=O)O)c2cc(F)ccc2/C1=C\c1ccc(S(C)(=O)=O)cc1` [Exisulind, 5-fluoro-2-methyl-1-(p-methylsulfonylbenzylidene)-3-indenylacetic acid]: the “Growth Inhibition” value in the test on HT-29 cells is “+ +”. For the same compound, in test [1], the “PKG activity relative to control” value was “increase in a dose-dependent manner”. For the same compound, the “PKG activation relative to control” value in test [2] is “PKG activation occurred”. The “reduction of β-catenin expression compared to control” value in test [3] (SW480, 200, 400 or 600 μM, 48 hours) stood at 50%. Besides, in test [3] (SW480, 48 hours, FIG. 19), the “PKG level” value is “increase of PKG” and the “β-catenin level” value is reported as “drop of β-catenin”.
